Measurements reported in patent US20230295163A1, “TETRACYCLIC DERIVATIVE, METHOD FOR PREPARING SAME AND USE THEREOF IN MEDICINE” (ZHEJIANG HISUN PHARMACEUTICAL CO., LTD., priority 2020, published 2023).
Read-outs that look alike come from different tables or passages of the source.

Legend:
[1] = ICR mouse pharmacokinetic research; assay type: in vivo; conditions: plasma, po, ICR mice, intragastric administration 5 mg/kg
Method: ICR mice were used as test animals. The drug concentrations in plasma at different time points of the compounds in Comparative Example 1 and Example 17 of the present disclosure intragastrically administered to the mice were determined by LC/MS/MS method, to study the pharmacokinetic characteristics of the compounds of the present disclosure in mice.
Preparation for intragastric administration: An appropriate amount of the compound to be tested was weighed, added with an appropriate amount of DMSO: PEG 200=5%: 95% (v/v), shaken by vortex, and prepared into a solution with a final concentration of 0.5 mg/mL.
Intragastric administration group: After fasting overnight, the mice were intragastrically administered at a dose of 5 mg/kg and a volume of 10 mL/kg, and fed 4 h after the administration.
Intragastric administration group: About 100 μL of blood was collected through the orbital vein before administration and at 0.25 h, 0.5 h, 1 h, 2 h, 4 h, 8 h, 12 h and 24 h after administration.
The whole blood sample was put in an EDTA-K2 anticoagulant tube. The plasma was separated by centrifugation at 1500 g for 10 min. The collected upper layer plasma was stored at −40 to −20° C. before analysis.
The content of the compound to be tested in mouse plasma was determined by LC-MS/MS after the compound was intragastrically administered.

[2] = target: T1, recombinant human KRAS G12C protein (Homo sapiens, UniProt P01116, G12C); test: Covalent binding ability to KRAS G12C protein (LC-MS); conditions: 3 μM, 5 min
T1 construct: The recombinant human KRAS G12C protein (aa1-169)
T1 sequence (P01116 1-169 isoform P01116-2 G12C): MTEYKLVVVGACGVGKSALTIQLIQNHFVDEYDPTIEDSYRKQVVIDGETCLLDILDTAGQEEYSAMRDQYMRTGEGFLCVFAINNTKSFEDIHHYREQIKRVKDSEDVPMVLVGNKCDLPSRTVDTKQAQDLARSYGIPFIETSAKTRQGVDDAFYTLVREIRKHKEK
Method: The following method was used to determine the covalent binding ability of the compounds of the present disclosure to recombinant human KRAS G12C protein under in vitro conditions.
The experimental procedure is briefly described as follows: The recombinant human KRAS G12C protein (aa1-169) was prepared with a reaction buffer (20 mM HEPES, 150 mM NaCl, 1 mM MgCl2, 1 mM DTT) at a concentration of 4 μM for later use. The test compound was prepared with DMSO into a 10 mM stock solution, which was then diluted with the reaction buffer for later use. First, 1.5 μL of the test compound diluted with the reaction buffer was added to each well (a final concentration of the reaction system was […]), then added with 23.5 μL of the reaction buffer, mixed well, then added with 25 μL of 4 μM recombinant human KRAS G12C protein for 5 min of incubation at room temperature, and added with 5 μL of acetic acid to stop the reaction. The samples were transferred to injection vials. The ratios of covalent binding between the test compounds and KRAS G12C protein were detected by Agilent 1290/6530 instrument, and the samples were analyzed in a liquid chromatography column (XBridge Protein BEH C4, 300 Å, 3.5 μm, 2.1 mm×50 mm). In the detection process, mobile phase A was 0.1% formic acid aqueous solution, mobile phase B was acetonitrile, the mobile phase elution program was as follows: mobile phase A was kept at 95% at 0-0.5 min, changed to 30% at 2.5 min for 0.5 min, and changed to 95% at 3.1 min for 1.9 min; and flow rate was 0.5 mL/min. Finally, the data was analyzed by MassHunter Workstation Software Bioconfirm Version B.08.00 to obtain the covalent binding rate between the test compound at a concentration of 3 μM and KRAS G12C protein under 5 min of incubation.

NCI-H358 cells = test: Inhibition of NCI-H358 cell proliferation (CellTiter-Glo); assay type: cell-based, human; conditions: 120 h of culture, read-out: IC50 inhibiting NCI-H358 cell proliferation
Method: The following method was used to determine the effect of the compounds of the present disclosure on the proliferation of NCI-H358 cells. NCI-H358 cells (containing KRAS G12C mutation) were purchased from the Cell Resource Center, Shanghai Institutes for Biology Sciences, Chinese Academy of Sciences, and cultured in RPMI 1640 medium containing 10% fetal bovine serum, 100 U penicillin, 100 μg/mL streptomycin and 1 mM sodium pyruvate. Cell viability was determined by CellTiter-Glo® Luminescent Cell Viability Assay Kit (Promega, Cat. No. G7573).
The experiment was conducted according to the steps in the kit instruction, which is briefly described as follows: The test compound was first prepared with DMSO into a 10 mM stock solution, which was then diluted with medium into a test sample with a final concentration of the compound ranging from 1000 nM to 0.015 nM Cells in the logarithmic growth phase were inoculated into a 96-well cell culture plate at a density of 800 cells per well, cultured overnight at 37° C. in a 5% CO2 incubator, and then added with the test compound for 120 h of culture. After the culture was completed, 50 μL of CellTiter-Glo detection solution was added to each well, shaken for 5 min and left to stand for 10 min. Subsequently, the luminescence value of the sample in each well was read by a microplate in a luminescence mode. The percentage of inhibition rate of the compounds at each concentration was calculated by comparing with the value of the control group (0.3% DMSO). Then a nonlinear regression analysis on the log concentration-inhibition rate of the compounds was performed by the software GraphPad Prism 5 to obtain the IC50 value of the compound inhibiting NCI-H358 cell proliferation. Table 2 IC50 data of compounds of the present disclosure inhibiting NCI-H358 cell proliferation Compound number IC50(nM)

[3] = tested on: p-ERK1/2 in NCI-H358 cells; test: Inhibition of p-ERK1/2 in NCI-H358 cells (HTRF kit); assay type: cell-based; conditions: Homo sapiens, hEGF 5 nM stimulation, read-out: IC50 inhibiting p-ERK1/2 in NCI-H358 cells
Description: The following method was used to determine the inhibitory activity of the compounds of the present disclosure on p-ERK1/2 in NCI-H358 cells. In this method, Advanced phospho-ERK1/2 (Thr202/tyr204) kit (Cat. No. 64AERPEH) from Cisbio company was used, and the detailed experimental operation can be referred to the kit instruction. NCI-H358 cells (containing KRAS G12C mutation) were purchased from the Cell Resource Center, Shanghai Institutes for Biology Sciences, Chinese Academy of Sciences.
The experimental procedure is briefly described as follows: NCI-H358 cells were cultured in RPMIH 1640 complete medium containing 10% fetal bovine serum, 100 U penicillin, 100 μg/mL streptomycin and 1 mM sodium pyruvate. […] The 96-well plate was placed on ice for half an hour of lysis, and then the lysate was detected according to the instruction of the Advanced phospho-ERK1/2 (Thr202/tyr204) kit. Finally, the fluorescence intensity of each well at emission wavelengths of 620 nm and 665 nM was measured on a microplate reader in TF-FRET mode at an excitation wavelength of 304 nm, and the ratio of the fluorescence intensity of each well at 665/620 was calculated. The percentage of inhibition rate of the test compounds at each concentration was calculated by comparing with the fluorescence intensity of the control group (0.1% DMSO). […]

SMILES | Covalent binding rate (%) [2] | IC50 (NCI-H358 cells; Homo sapiens, NCI-H358, 120 h) | IC50 (NCI-H358 cells) | further results
C=CC(=O)N1C[C@@H]2C(=O)N(C)c3c(c4cc(Cl)c(-c5c(O)cccc5F)nc4n(-c4c(C)ccnc4C(C)C)c3=O)N2C[C@H]1C (atropisomer, axis not shown) [Comparative Example 1, reference compound] | – | – | – | AUC(0-inf) ([1]; read-out: Area under curve AUC0-∞): 4180 ng·h/mL; Cmax ([1]; read-out: Blood concentration Cmax): 928 ng/mL; half-life ([1]; read-out: Half-life T½ (converted)): 117 min
C=CC(=O)N1C[C@@H]2C(=O)N(C)c3c(c4cc(F)c(-c5ccc(F)c6sc(N)nc56)nc4n(-c4c(C)ccnc4C(C)C)c3=O)N2C[C@H]1C [Compound 7, (2R,4aR)-3-acryloyl-10-(2-amino-7-fluorobenzo[d]thiazol-4-yl)-11-fluoro-8-(2-isopropyl-4-methylpyridin-3-yl)-2,6-dimethyl-2,3,4,4a,6,8-hexahydro-1H-pyrazino [1′,2′:4,5]pyrazino[2,3-c][1,8]naphthyridine-5,7-dione] | 42.5% | 67.2 nM | – | –
C=CC(=O)N1C[C@@H]2C(=O)N(C)c3c(c4cc(F)c(-c5nc(N)ccc5Cl)nc4n(-c4c(C)ccnc4C(C)C)c3=O)N2C[C@H]1C [Compound 10, (2R,4aR)-3-acryloyl-10-(6-amino-3-chloropyridin-2-yl)-11-fluoro-8-(2-isopropyl-4-methylpyridin-3-yl)-2,6-dimethyl-2,3,4,4a,6,8-hexahydro-1H-pyrazino [1′,2′:4,5]pyrazino[2,3-c][1,8] naphthyridine-5,7-dione] | 45.5% | 73.4 nM | – | –

The next lines start with results.

Covalent binding rate (%) [2] | IC50 (NCI-H358 cells; Homo sapiens, NCI-H358, 120 h) | IC50 (NCI-H358 cells) | SMILES | further results
38.5% | – | 39.9 nM | C=CC(=O)N1C[C@@H]2C(=O)N(C)c3c(c4cc(Cl)c(-c5c(O)cccc5F)nc4n(-c4c(SC)ccnc4C(C)C)c3=O)N2C[C@H]1C [Compound 16, (2R,4aR)-3-acryloyl-11-chloro-10-(2-fluoro-6-hydroxyphenyl)-8-(2-isopropyl-4-(methylthio)pyridin-3-yl)-2,6-dimethyl-2,3,4,4a,6,8-hexahydro-1H-pyrazino [1′,2′:4,5]pyrazino[2,3-c][1,8] naphthyridine-5,7-dione] | IC50 [3]: 93 nM
– | – | 98.5 nM | C=CC(=O)N1C[C@@H]2C(=O)N(C)c3c(c4cc(Cl)c(-c5c(O)cccc5F)nc4n(-c4c(SC)ccnc4C(C)C)c3=O)N2C[C@H]1C [Compound 18] | –
